From the NIST ThermoML archive (doi:10.1021/acs.jced.7b00119)
Several values for one entry are separate records, joined by “and”; a condition that tells them apart may be missing. Identical values can stand only once.

Assays:
[1] = Liquid, Closed cell (Static) method
[2] = excess molar enthalpy (molar enthalpy of mixing); xn = mol fraction of the nth substance listed; settings: Liquid, Flow calorimetry

CC(=O)N(C)C [N,N-dimethylethanamide]
[1]
Settings	vapor or sublimation pressure
328.15 K	1.61 kPa and 1.64 kPa
333.15 K	2.23 kPa
343.15 K	3.39 kPa
353.15 K	5.32 kPa [middle of 5 runs]
363.15 K	8.46 kPa

CC(=O)N(C)C [N,N-dimethylethanamide] + CCCCCC
[2]
Settings	excess molar enthalpy [kcal/mol]
363.15 K, 1982 kPa, x2 = 0.0358	0.0559
363.15 K, 1982 kPa, x2 = 0.0726	0.114
363.15 K, 1982 kPa, x2 = 0.1106	0.168
363.15 K, 1982 kPa, x2 = 0.1498	0.218
363.15 K, 1982 kPa, x2 = 0.1902	0.262
363.15 K, 1982 kPa, x2 = 0.2319	0.302
363.15 K, 1982 kPa, x2 = 0.275	0.337
363.15 K, 1982 kPa, x2 = 0.3196	0.366
363.15 K, 1982 kPa, x2 = 0.3657	0.391
363.15 K, 1982 kPa, x2 = 0.4134	0.41
363.15 K, 1982 kPa, x2 = 0.4627	0.419
363.15 K, 1982 kPa, x2 = 0.5138	0.426
363.15 K, 1982 kPa, x2 = 0.5668	0.426
363.15 K, 1982 kPa, x2 = 0.6218	0.418
363.15 K, 1982 kPa, x2 = 0.6788	0.4
363.15 K, 1982 kPa, x2 = 0.7381	0.37
363.15 K, 1982 kPa, x2 = 0.7997	0.324
363.15 K, 1982 kPa, x2 = 0.8638	0.258
363.15 K, 1982 kPa, x2 = 0.9305	0.157
413.15 K, 1824 kPa, x2 = 0.0179	0.0289
413.15 K, 1824 kPa, x2 = 0.0361	0.059
413.15 K, 1824 kPa, x2 = 0.0733	0.117
413.15 K, 1824 kPa, x2 = 0.1116	0.17
413.15 K, 1824 kPa, x2 = 0.151	0.218
413.15 K, 1824 kPa, x2 = 0.1917	0.262
413.15 K, 1824 kPa, x2 = 0.2337	0.304
413.15 K, 1824 kPa, x2 = 0.277	0.338
413.15 K, 1824 kPa, x2 = 0.3217	0.369
413.15 K, 1824 kPa, x2 = 0.3679	0.396
413.15 K, 1824 kPa, x2 = 0.4157	0.421
413.15 K, 1824 kPa, x2 = 0.4651	0.433
413.15 K, 1824 kPa, x2 = 0.5163	0.441
413.15 K, 1824 kPa, x2 = 0.5692	0.442
413.15 K, 1824 kPa, x2 = 0.6241	0.434
413.15 K, 1824 kPa, x2 = 0.681	0.415
413.15 K, 1824 kPa, x2 = 0.74	0.386
413.15 K, 1824 kPa, x2 = 0.8013	0.337
413.15 K, 1824 kPa, x2 = 0.8649	0.264
413.15 K, 1824 kPa, x2 = 0.9311	0.158
413.15 K, 1824 kPa, x2 = 0.9652	0.086

CC(=O)N(C)C [N,N-dimethylethanamide] + CCCCCCC
[2], 413.15 K, 1824 kPa
Settings	excess molar enthalpy [kcal/mol]
x2 = 0.016	0.0308
x2 = 0.0323	0.0619
x2 = 0.0659	0.122
x2 = 0.1007	0.177
x2 = 0.137	0.228
x2 = 0.1747	0.276
x2 = 0.2139	0.319
x2 = 0.2548	0.358
x2 = 0.2974	0.393
x2 = 0.3419	0.423
x2 = 0.3883	0.449
x2 = 0.4369	0.466
x2 = 0.4878	0.476
x2 = 0.5411	0.48
x2 = 0.597	0.474
x2 = 0.6557	0.456
x2 = 0.7175	0.427
x2 = 0.7825	0.376
x2 = 0.8511	0.299
x2 = 0.9234	0.181
x2 = 0.9612	0.0999

CC(=O)N(C)C [N,N-dimethylethanamide] + CCO
[2], 413.15 K, 1824 kPa
Settings	excess molar enthalpy [kcal/mol]
x2 = 0.0774	-0.0421
x2 = 0.1505	-0.077
x2 = 0.2528	-0.116
x2 = 0.3471	-0.143
x2 = 0.462	-0.163
x2 = 0.541	-0.168
x2 = 0.6146	-0.166
x2 = 0.6833	-0.154
x2 = 0.7476	-0.138
x2 = 0.8271	-0.109
x2 = 0.8826	-0.0805
x2 = 0.9349	-0.049
x2 = 0.9681	-0.0258

CC(=O)N(C)C [N,N-dimethylethanamide] + CCOC(C)=O
[2], 323.15 K, 1307 kPa
Settings	excess molar enthalpy [kcal/mol]
x2 = 0.0476	0.00669
x2 = 0.0954	0.0126
x2 = 0.1435	0.0188
x2 = 0.1918	0.0239
x2 = 0.2404	0.0284
x2 = 0.2892	0.0327
x2 = 0.3383	0.0361
x2 = 0.3876	0.0392
x2 = 0.4372	0.0413
x2 = 0.487	0.043
x2 = 0.5371	0.044
x2 = 0.5875	0.0437
x2 = 0.6381	0.043
x2 = 0.689	0.0409
x2 = 0.7401	0.0382
x2 = 0.7916	0.0344
x2 = 0.8433	0.0287
x2 = 0.8952	0.0212
x2 = 0.9475	0.0119

CC(=O)N(C)C [N,N-dimethylethanamide] + CO
[2], 413.15 K, 1824 kPa
Settings	excess molar enthalpy [kcal/mol]
x2 = 0.1079	-0.0748
x2 = 0.2034	-0.13
x2 = 0.2885	-0.17
x2 = 0.3648	-0.196
x2 = 0.4337	-0.212
x2 = 0.4961	-0.22
x2 = 0.553	-0.221
x2 = 0.605	-0.217
x2 = 0.6527	-0.207
x2 = 0.6967	-0.197
x2 = 0.7374	-0.181
x2 = 0.7751	-0.163
x2 = 0.8101	-0.145
x2 = 0.8428	-0.125
x2 = 0.8733	-0.105
x2 = 0.9019	-0.0848
x2 = 0.9287	-0.0633
x2 = 0.9539	-0.0423
x2 = 0.9776	-0.0213

CC(=O)N(C)C [N,N-dimethylethanamide] + Cc1ccccc1
[2]
Settings	excess molar enthalpy [kcal/mol]
363.15 K, 1955 kPa, x2 = 0.0436	0.00378
363.15 K, 1955 kPa, x2 = 0.0878	0.00686
363.15 K, 1955 kPa, x2 = 0.1327	0.0102
363.15 K, 1955 kPa, x2 = 0.1781	0.0134
363.15 K, 1955 kPa, x2 = 0.2242	0.0163
363.15 K, 1955 kPa, x2 = 0.2709	0.0193
363.15 K, 1955 kPa, x2 = 0.3182	0.0232
363.15 K, 1955 kPa, x2 = 0.3662	0.0263
363.15 K, 1955 kPa, x2 = 0.4149	0.0292
363.15 K, 1955 kPa, x2 = 0.4643	0.0318
363.15 K, 1955 kPa, x2 = 0.5144	0.0344
363.15 K, 1955 kPa, x2 = 0.5652	0.0361
363.15 K, 1955 kPa, x2 = 0.6168	0.0368
363.15 K, 1955 kPa, x2 = 0.6691	0.038
363.15 K, 1955 kPa, x2 = 0.7222	0.0385
363.15 K, 1955 kPa, x2 = 0.7761	0.0375
363.15 K, 1955 kPa, x2 = 0.8308	0.0349
363.15 K, 1955 kPa, x2 = 0.8864	0.0289
363.15 K, 1955 kPa, x2 = 0.9428	0.0178
413.15 K, 1824 kPa, x2 = 0.022	0.00251
413.15 K, 1824 kPa, x2 = 0.0441	0.00528
413.15 K, 1824 kPa, x2 = 0.0887	0.00963
413.15 K, 1824 kPa, x2 = 0.1338	0.014
413.15 K, 1824 kPa, x2 = 0.1796	0.0186
413.15 K, 1824 kPa, x2 = 0.2259	0.0225
413.15 K, 1824 kPa, x2 = 0.2728	0.0265
413.15 K, 1824 kPa, x2 = 0.3204	0.0311
413.15 K, 1824 kPa, x2 = 0.3686	0.0354
413.15 K, 1824 kPa, x2 = 0.4174	0.0406
413.15 K, 1824 kPa, x2 = 0.4668	0.0449
413.15 K, 1824 kPa, x2 = 0.5169	0.0485
413.15 K, 1824 kPa, x2 = 0.5677	0.0523
413.15 K, 1824 kPa, x2 = 0.6192	0.0554
413.15 K, 1824 kPa, x2 = 0.6714	0.0571
413.15 K, 1824 kPa, x2 = 0.7243	0.0576
413.15 K, 1824 kPa, x2 = 0.7779	0.0557
413.15 K, 1824 kPa, x2 = 0.8323	0.0497
413.15 K, 1824 kPa, x2 = 0.8874	0.0406
413.15 K, 1824 kPa, x2 = 0.9433	0.0246
413.15 K, 1824 kPa, x2 = 0.9715	0.0134

CC(=O)N(C)C [N,N-dimethylethanamide] + c1ccccc1
[2], 413.15 K, 1824 kPa
Settings	excess molar enthalpy [kcal/mol]
x2 = 0.0261	-0.0033
x2 = 0.0522	-0.00617
x2 = 0.1042	-0.0116
x2 = 0.1817	-0.0187
x2 = 0.2586	-0.0239
x2 = 0.3604	-0.0277
x2 = 0.4361	-0.0275
x2 = 0.5114	-0.0241
x2 = 0.5861	-0.0193
x2 = 0.6603	-0.0129
x2 = 0.7584	-0.00356
x2 = 0.8315	0.00311
x2 = 0.904	0.00703
x2 = 0.9521	0.00629
x2 = 0.9761	0.00411

c1ccccc1 [benzene]
Settings	vapor or sublimation pressure [kPa]
[1], 328.15 K	43.65

ClCCl [dichloromethane]
Settings	vapor or sublimation pressure [kPa]
[1], 333.15 K	197.94

ClCCl [dichloromethane] + CC(=O)N(C)C
[2], 323.15 K, 1273 kPa
Settings	excess molar enthalpy [kcal/mol]
x1 = 0.0709	-0.101
x1 = 0.1387	-0.188
x1 = 0.2037	-0.265
x1 = 0.2659	-0.328
x1 = 0.3257	-0.379
x1 = 0.3831	-0.412
x1 = 0.4383	-0.438
x1 = 0.4914	-0.454
x1 = 0.5425	-0.458
x1 = 0.5917	-0.456
x1 = 0.6391	-0.44
x1 = 0.6849	-0.417
x1 = 0.7291	-0.386
x1 = 0.7718	-0.348
x1 = 0.813	-0.303
x1 = 0.8529	-0.252
x1 = 0.8914	-0.195
x1 = 0.9288	-0.132
x1 = 0.965	-0.0681

CCO [ethanol]
Settings	vapor or sublimation pressure [kPa]
[1], 353.15 K	108.42

CCOC(C)=O [ethyl acetate]
Settings	vapor or sublimation pressure [kPa]
[1], 353.15 K	111.76

CCCCCCC [heptane]
Settings	vapor or sublimation pressure [kPa]
[1], 353.15 K	57.09

CCCCCC [hexane]
Settings	vapor or sublimation pressure [kPa]
[1], 353.15 K	142.4

CO [methanol]
Settings	vapor or sublimation pressure [kPa]
[1], 343.15 K	125.65

C=CCCCCCC [oct-1-ene]
[1]
Settings	vapor or sublimation pressure [kPa]
328.15 K	10.12
363.15 K	39.2

C=CCCCCCC [oct-1-ene] + CC(=O)N(C)C
[2], 363.15 K, 1858 kPa
Settings	excess molar enthalpy [kcal/mol]
x1 = 0.03	0.0437
x1 = 0.0612	0.0906
x1 = 0.0938	0.135
x1 = 0.1279	0.176
x1 = 0.1636	0.213
x1 = 0.201	0.249
x1 = 0.2401	0.281
x1 = 0.2812	0.31
x1 = 0.3244	0.336
x1 = 0.3698	0.357
x1 = 0.4177	0.37
x1 = 0.4682	0.379
x1 = 0.5215	0.383
x1 = 0.5779	0.38
x1 = 0.6377	0.368
x1 = 0.7013	0.344
x1 = 0.7688	0.304
x1 = 0.8408	0.243
x1 = 0.9177	0.149

Cc1ccccc1 [toluene]
Settings	vapor or sublimation pressure [kPa]
[1], 353.15 K	38.92
